In patent US10626115B2, “Fused pyrimidinone and triazinone derivatives containing bridged nitrogen, their process of preparation and their therapeutic uses as antifungal and/or antiparasitic agents” (UNIVERSITE DE NANTES, priority 2015, dated 2020):
Converted amounts (≈) assume the structure as drawn.

Key:
[1] = tested on: A. fumigatus susceptible strain ASFU35A; assay: Antifungal susceptibility, spectrofluorimetric microdilution, ASFU35A; type: cell-based, Aspergillus fumigatus; conditions: Aspergillus fumigatus, read-out: MIC values ASFU35A
Procedure: (§1) Eleven strains of A. fumigatus with various itraconazole susceptibility were used: • Five susceptible strains: ASFU7, ASFU35A, ASFU38A, ASFU76 and ASFU78. • Six itraconazole-resistant strains: ASFU77 (erg11 mutation), ASFU13, ASFU17, ASFU19, ASFU20, ASFU23.
(§2) Antifungal susceptibility was evaluated with a spectrofluorimetric microdilution method. MIC was the concentration that was able to inhibit 80% of fluorescence measured in the control wells.

[2] = tested on: A. fumigatus susceptible strain ASFU38A; assay: Antifungal susceptibility, spectrofluorimetric microdilution, ASFU38A; type: cell-based, Aspergillus fumigatus; conditions: Aspergillus fumigatus, read-out: MIC values ASFU38A
Procedure: as §1, §2

[3] = tested on: A. fumigatus susceptible strain ASFU78; assay: Antifungal susceptibility, spectrofluorimetric microdilution, ASFU78; type: cell-based, Aspergillus fumigatus; conditions: Aspergillus fumigatus, read-out: MIC values ASFU78
Procedure: as §1, §2

[4] = tested on: promastigote stage of a Leishmania mexicana strain; assay: Anti-Trypanosomatidae activity, promastigote stage, spectrofluorimetric microdilution; type: cell-based; conditions: for IC50: Leishmania mexicana, promastigote stage, 50% of control growth, read-out: L. mexicana (IC50 μM)
Procedure: Compounds were evaluated on the promastigote stage of a Leishmania mexicana strain using a spectrofluorimetric microdilution method. Inhibitory concentration 50 (IC50) was the concentration that inhibited 50% of the control growth.

[5] = tested on: A. fumigatus susceptible strain ASFU76; assay: Antifungal susceptibility, spectrofluorimetric microdilution, ASFU76; type: cell-based, Aspergillus fumigatus; conditions: Aspergillus fumigatus, read-out: MIC values ASFU76
Procedure: as §1, §2

[6] = tested on: A. fumigatus itraconazole-resistant strain ASFU77 (erg11 mutation); assay: Antifungal susceptibility, spectrofluorimetric microdilution, ASFU77; type: cell-based, Aspergillus fumigatus; conditions: for MIC: Aspergillus fumigatus, read-out: MIC values ASFU77
Procedure: as §1, §2

[7] = tested on: fluconazole-susceptible C. albicans strain: CAAL93; assay: Antifungal susceptibility, spectrofluorimetric microdilution, CAAL93; type: cell-based; conditions: Candida albicans, read-out: MIC values CAAL93
Procedure: (§3) Eight strains of Candida spp. with various azoles-susceptibilities were used: • One fluconazole-susceptible C. albicans strain: CAAL93 • Two fluconazole-resistant C. albicans strains: CAAL111 (efflux pump) and CAAL117 (erg11 mutations+voriconazole-resistant) • five fluconazole-resistant Candida non albicans strains: C. krusei (CAKR7, CAKR8), C. glabrata (CAGL2), C. parapsilosis s.l. (CAPA1, CAPA2).
(§4) Antifungal susceptibility was evaluated with a spectrofluorimetric microdilution method.

[8] = tested on: A. fumigatus susceptible strain ASFU7; assay: Antifungal susceptibility, spectrofluorimetric microdilution, ASFU7; type: cell-based, Aspergillus fumigatus; conditions: Aspergillus fumigatus, read-out: MIC values ASFU7
Procedure: as §1, §2

[9] = tested on: A. fumigatus itraconazole-resistant strain ASFU23; assay: Antifungal susceptibility, spectrofluorimetric microdilution, ASFU23; type: cell-based, Aspergillus fumigatus; conditions: Aspergillus fumigatus, read-out: MIC values ASFU23
Procedure: as §1, §2

[10] = tested on: fluconazole-resistant C. krusei (CAKR7); assay: microbe, parasite or virus in culture; type: cell-based; conditions: Pichia kudriavzevii, read-out: MIC values CAKR7
Procedure: as §3, §4

[11] = tested on: fluconazole-resistant C. albicans strain CAAL111 (efflux pump); assay: microbe, parasite or virus in culture; type: cell-based; conditions: Candida albicans, read-out: MIC values CAAL111
Procedure: as §3, §4

[12] = tested on: fluconazole-resistant C. albicans strain CAAL117 (erg11 mutations+voriconazole-resistant); assay: microbe, parasite or virus in culture; type: cell-based; conditions: for MIC: Candida albicans, read-out: MIC values CAAL117; for fold more active than voriconazole against CAAL117: compared with voriconazole
Procedure: as §3, §4

[13] = tested on: fluconazole-resistant C. krusei (CAKR8); assay: microbe, parasite or virus in culture; type: cell-based; conditions: Pichia kudriavzevii, read-out: MIC values CAKR8
Procedure: as §3, §4

[14] = tested on: fluconazole-resistant C. glabrata (CAGL2); assay: microbe, parasite or virus in culture; type: cell-based; conditions: Nakaseomyces glabratus, read-out: MIC values CAGL2
Procedure: as §3, §4

[15] = tested on: A. fumigatus itraconazole-resistant strain ASFU17; assay: Antifungal susceptibility, spectrofluorimetric microdilution, ASFU17; type: cell-based, Aspergillus fumigatus; conditions: Aspergillus fumigatus, read-out: MIC values ASFU17
Procedure: as §1, §2

[16] = tested on: A. fumigatus itraconazole-resistant strain ASFU13; assay: Antifungal susceptibility, spectrofluorimetric microdilution, ASFU13; type: cell-based, Aspergillus fumigatus; conditions: Aspergillus fumigatus, read-out: MIC values ASFU13
Procedure: as §1, §2

[17] = tested on: A. fumigatus itraconazole-resistant strain ASFU19; assay: Antifungal susceptibility, spectrofluorimetric microdilution, ASFU19; type: cell-based, Aspergillus fumigatus; conditions: Aspergillus fumigatus, read-out: MIC values ASFU19
Procedure: as §1, §2

[18] = tested on: A. fumigatus itraconazole-resistant strain ASFU20; assay: Antifungal susceptibility, spectrofluorimetric microdilution, ASFU20; type: cell-based, Aspergillus fumigatus; conditions: Aspergillus fumigatus, read-out: MIC values ASFU20
Procedure: as §1, §2

Compound: C[C@@H](n1ccc2nccn2c1=O)[C@](O)(Cn1cncn1)c1ccc(F)cc1F [Compound 27, 6-[(1R,2R)-2-(2,4-Difluorophenyl)-2-hydroxy-1-methyl-3-(1H-1,2,4-triazol-1-yl)propyl]imidazo[1,2-c]pyrimidin-5-one]
- MIC [1]: 6.96 ± 1.49 µg/mL (≈ 18 µM)
- MIC [2]: 23 ± 21.1 µg/mL (≈ 59.6 µM)
- MIC [3]: 6.03 ± 0.95 µg/mL (≈ 15.6 µM)
- melting point: 156 to 157 °C
- IC50 [4]: > 100 µM
- MIC [5]: 6.76 ± 0.1 µg/mL (≈ 17.5 µM)
- MIC values against ITRA-resistant isolate carrying M220T mutation (ASFU77), in words [6]: in the micromolar range
- MIC [6]: 6.47 ± 0.03 µg/mL (≈ 16.7 µM)
- MIC [7]: 0.014 ± 0.001 µg/mL (≈ 0.0362 µM)
- MIC [8]: 7.29 ± 0.22 µg/mL (≈ 18.9 µM)

Compound: Cc1cn2c(=O)n([C@H](C)[C@](O)(Cn3cncn3)c3ccc(F)cc3F)ccc2n1 [Compound 28, 6-[(1R,2R)-2-(2,4-Difluorophenyl)-2-hydroxy-1-methyl-3-(1H-1,2,4-triazol-1-yl)propyl]-2-methylimidazo[1,2-c]pyrimidin-5-one]
- melting point: 103 to 104 °C
- IC50 [4]: > 100 µM

Compound: C[C@@H](n1ccc2nc(-c3ccc(F)cc3)cn2c1=O)[C@](O)(Cn1cncn1)c1ccc(F)cc1F [Compound 30, 6-[(1R,2R)-2-(2,4-Difluorophenyl)-2-hydroxy-1-methyl-3-(1H-1,2,4-triazol-1-yl)propyl]-2-(4-fluorophenyl)imidazo[1,2-c]pyrimidin-5-one]
- melting point: 114 to 115 °C
- effectiveness against the promastigote stage of L. Mexicana, in words [4]: effective
- IC50 [4]: 8.1 ± 1.6 µM

Compound: C[C@@H](n1ccc2nc(-c3ccc(Cl)cc3)cn2c1=O)[C@](O)(Cn1cncn1)c1ccc(F)cc1F [Compound 31, 6-[(1R,2R)-2-(2,4-Difluorophenyl)-2-hydroxy-1-methyl-3-(1H-1,2,4-triazol-1-yl)propyl]-2-(4-chlorophenyl)imidazo[1,2-c]pyrimidin-5-one]
- MIC [1]: 5.81 ± 0.5 µg/mL (≈ 11.7 µM)
- MIC [2]: 5.59 ± 0.15 µg/mL (≈ 11.2 µM)
- MIC [3]: 5.72 ± 0.39 µg/mL (≈ 11.5 µM)
- melting point: 158 to 159 °C
- MIC [5]: 5.7 ± 0.51 µg/mL (≈ 11.5 µM)
- MIC values against ITRA-resistant isolate carrying M220T mutation (ASFU77), in words [6]: in the micromolar range
- MIC [6]: 5.99 ± 0.33 µg/mL (≈ 12.1 µM)
- MIC [7]: < 0.001 µg/mL
- MIC [8]: 5.04 µg/mL (≈ 10.1 µM)

Compound: C[C@@H](n1ccc2nc(-c3ccc(Br)cc3)cn2c1=O)[C@](O)(Cn1cncn1)c1ccc(F)cc1F [Compound 32, 6-[(1R,2R)-2-(2,4-Difluorophenyl)-2-hydroxy-1-methyl-3-(1H-1,2,4-triazol-1-yl)propyl]-2-(4-bromophenyl)imidazo[1,2-c]pyrimidin-5-one]
- melting point: 161 to 162 °C

Compound: C[C@@H](n1ccc2nc(-c3ccc(C(F)(F)F)cc3)cn2c1=O)[C@](O)(Cn1cncn1)c1ccc(F)cc1F [Compound 33, 6-[(1R,2R)-2-(2,4-Difluorophenyl)-2-hydroxy-1-methyl-3-(1H-1,2,4-triazol-1-yl)propyl]-2-[(4-trifluoromethyl)phenyl]imidazo[1,2-c]pyrimidin-5-one]
- melting point: 196 to 197 °C

Compound: C[C@@H](n1ccc2nc(-c3nccs3)cn2c1=O)[C@](O)(Cn1cncn1)c1ccc(F)cc1F [Compound 36, 6-[(1R,2R)-2-(2,4-Difluorophenyl)-2-hydroxy-1-methyl-3-(1H-1,2,4-triazol-1-yl)propyl]-2-(thiazol-2-yl)imidazo[1,2-c]pyrimidin-5-one]
- melting point: 175 to 176 °C

Compound: CCOC(=O)c1cn2c(=O)n([C@H](C)[C@](O)(Cn3cncn3)c3ccc(F)cc3F)ccc2n1 [Compound 37, Ethyl-6-[(1R,2R)-2-(2,4-difluorophenyl)-2-hydroxy-1-methyl-3-(1H-1,2,4-triazol-1-yl)propyl]-5-oxo-imidazo[1,2-c]pyrimidine-2-carboxylate]
- melting point: 148 to 149 °C

Compound: C[C@@H](n1ccc2nc(C#N)cn2c1=O)[C@](O)(Cn1cncn1)c1ccc(F)cc1F [Compound 38, 6-[(1R,2R)-2-(2,4-Difluorophenyl)-2-hydroxy-1-methyl-3-(1H-1,2,4-triazol-1-yl)propyl]-5-oxo-imidazo[1,2-c]pyrimidine-2-carbonitrile]
- melting point: 132 to 133 °C

Compound: C[C@@H](n1ncc2cccn2c1=O)[C@](O)(Cn1cncn1)c1ccc(F)cc1F [Compound 44, 3-[(1R,2R)-2-(2,4-Difluorophenyl)-2-hydroxy-1-methyl-3-(1,2,4-triazol-1-yl)propyl]-3H-pyrrolo[1,2-d][1,2,4]triazin-4-one]
- MIC [1]: 21.4 ± 10.1 µg/mL (≈ 55.3 µM)
- MIC [2]: 55.1 ± 9.96 µg/mL (≈ 143 µM)
- MIC [9]: 9.54 µg/mL (≈ 24.7 µM)
- MIC [10]: 0.625 ± 0.057 µg/mL (≈ 1.62 µM)
- MIC [11]: 0.48 ± 0.199 µg/mL (≈ 1.24 µM)
- MIC [12]: 0.79 ± 0.092 µg/mL (≈ 2.04 µM)
- MIC [13]: 1.15 µg/mL (≈ 2.98 µM)
- MIC [14]: 0.099 ± 0.004 µg/mL (≈ 0.256 µM)
- MIC [3]: 19.7 ± 12.9 µg/mL (≈ 51 µM)
- MIC [15]: > 38 µg/mL
- melting point: 131 to 132 °C
- MIC [16]: 4.06 µg/mL (≈ 10.5 µM)
- MIC [17]: > 38 µg/mL
- MIC [5]: 18.1 ± 10.1 µg/mL (≈ 46.9 µM)
- MIC [6]: 52.8 ± 4.54 µg/mL (≈ 137 µM)
- MIC [7]: < 0.001 µg/mL
- MIC [18]: 8.04 µg/mL (≈ 20.8 µM)
- MIC [8]: 24.3 ± 9.57 µg/mL (≈ 62.9 µM)

Compound: C[C@@H](n1ncc2cc(Br)cn2c1=O)[C@](O)(Cn1cncn1)c1ccc(F)cc1F [Compound 45, 7-Bromo-3-[(1R,2R)-2-(2,4-difluorophenyl)-2-hydroxy-1-methyl-3-(1,2,4-triazol-1-yl)propyl]-3H-pyrrolo[1,2-d][1,2,4]triazin-4-one]
- melting point: 142 to 143 °C

Compound: C[C@@H](n1ncc2cc(-c3ccccc3)cn2c1=O)[C@](O)(Cn1cncn1)c1ccc(F)cc1F [Compound 47, 3-[(1R,2R)-2-(2,4-Difluorophenyl)-2-hydroxy-1-methyl-3-(1,2,4-triazol-1-yl)propyl]-7-phenyl-3H-pyrrolo[1,2-d][1,2,4]triazin-4-one]
- MIC [1]: 41.3 ± 8.61 µg/mL (≈ 89.4 µM)
- MIC [2]: 58.4 ± 15.7 µg/mL (≈ 126 µM)
- MIC [10]: 0.013 ± 0.001 µg/mL (≈ 0.0281 µM)
- MIC [11]: 0.016 ± 0.001 µg/mL (≈ 0.0346 µM)
- MIC [12]: 0.014 ± 0.002 µg/mL (≈ 0.0303 µM)
- fold more active than voriconazole against CAAL117 [12]: 100 fold
- MIC [13]: 0.014 µg/mL (≈ 0.0303 µM)
- MIC [14]: 0.008 ± 0.005 µg/mL (≈ 0.0173 µM)
- MIC [3]: 54.7 ± 12.1 µg/mL (≈ 118 µM)
- melting point: 146 to 147 °C
- MIC [5]: 48.4 ± 7.95 µg/mL (≈ 105 µM)
- MIC [6]: 64.8 ± 7.46 µg/mL (≈ 140 µM)
- MIC [7]: < 0.001 µg/mL
- MIC [8]: 44.1 ± 7.76 µg/mL (≈ 95.3 µM)

Compound: C[C@@H](n1ncc2cc(-c3ccc(C#N)cc3)cn2c1=O)[C@](O)(Cn1cncn1)c1ccc(F)cc1F [Compound 49, 4-{3-[(1R,2R)-2-(2,4-Difluorophenyl)-2-hydroxy-1-methyl-3-(1,2,4-triazol-1-yl)propyl]-4-oxo-3,4-dihydro-pyrrolo[1,2-d][1,2,4]triazin-7-yl}benzonitrile]
- MIC [10]: 0.058 ± 0.009 µg/mL (≈ 0.119 µM)
- MIC [12]: 0.016 ± 0.001 µg/mL (≈ 0.0328 µM)
- fold more active than voriconazole against CAAL117 [12]: 100 fold
- MIC [13]: 0.101 ± 0.014 µg/mL (≈ 0.207 µM)
- MIC [14]: 0.025 ± 0.01 µg/mL (≈ 0.0513 µM)
- melting point: 201 to 202 °C
- MIC [7]: < 0.048 µg/mL

Compound: N=C(N)c1ccc(OCCCCCOc2ccc(C(=N)N)cc2)cc1 [Pentamidine, reference compound]
- IC50 [4]: 0.34 ± 0.03 µM
